Laboratory results published in ChEMBL document CHEMBL1201861, “Genomics of Drug Sensitity in Cancer screening data, Wellcome Trust Sanger Institute”.
pIC50: −log10 of the molar value.

What was measured:
Test in all cases: cells
MEL-HO = type: functional, cell-based, Homo sapiens; settings: Homo sapiens, MEL-HO
Description: SANGER: Inhibition of human MEL-HO cell growth in a cell viability assay.

CHP-212 = type: functional, cell-based, Homo sapiens; settings: Homo sapiens, CHP-212
Description: SANGER: Inhibition of human CHP-212 cell growth in a cell viability assay.

OAW-28 = type: functional, cell-based, Homo sapiens; settings: Homo sapiens, OAW-28;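 note: growth inhibition of OAW-28 cells, read out with a cell viability assay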
Description: SANGER: Inhibition of human OAW-28 cell growth in a cell viability assay.

KYSE-520 cell line = type: functional, cell-based, Homo sapiens; settings: Homo sapiens, KYSE-520;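 note: growth inhibition of human KYSE-520 cells, read out with a viability assay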
Description: SANGER: Inhibition of human KYSE-520 cell growth in a cell viability assay.

SW626 = type: functional, cell-based, Homo sapiens; settings: Homo sapiens, SW626;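 note: growth inhibition of SW626 cells, measured with a cell viability assay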
Description: SANGER: Inhibition of human SW626 cell growth in a cell viability assay.

LCLC-97TM1 = type: functional, cell-based, Homo sapiens; settings: Homo sapiens, LCLC-97TM1;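 note: cell viability assay measuring growth inhibition of human LCLC-97TM1 cells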
Description: SANGER: Inhibition of human LCLC-97TM1 cell growth in a cell viability assay.

ESS-1 = type: functional, cell-based, Homo sapiens; settings: Homo sapiens, ESS-1;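 note: growth inhibition of human ESS-1 cells, read out by a cell viability assay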
Description: SANGER: Inhibition of human ESS-1 cell growth in a cell viability assay.

A-375 = type: functional, cell-based, Homo sapiens; settings: Homo sapiens, A-375;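 note: growth inhibition of A375 cells, read out with a cell viability assay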
Description: SANGER: Inhibition of human A375 cell growth in a cell viability assay.

NCI-H522 = type: functional, cell-based, Homo sapiens; settings: Homo sapiens, NCI-H522;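 note: cell viability assay measuring growth inhibition of human NCI-H522 cells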
Description: SANGER: Inhibition of human NCI-H522 cell growth in a cell viability assay.

A673 = type: functional, cell-based, Homo sapiens; settings: Homo sapiens, A673;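 note: growth inhibition of human A673 cells, read out through a cell viability assay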
Description: SANGER: Inhibition of human A673 cell growth in a cell viability assay.

HT55 = type: functional, cell-based, Homo sapiens; settings: Homo sapiens, HT55;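 note: cell viability readout measuring growth inhibition of human HT55 cells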
Description: SANGER: Inhibition of human HT55 cell growth in a cell viability assay.

KYSE-450 = type: functional, cell-based, Homo sapiens; settings: Homo sapiens, KYSE-450;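 note: cell growth inhibition measured by a viability assay in human KYSE-450 cells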
Description: SANGER: Inhibition of human KYSE-450 cell growth in a cell viability assay.

H-EMC-SS = type: functional, cell-based, Homo sapiens; settings: Homo sapiens, H-EMC-SS
Description: SANGER: Inhibition of human H-EMC-SS cell growth in a cell viability assay.

NCI-H292 = type: functional, cell-based, Homo sapiens; settings: Homo sapiens, NCI-H292;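 note: growth inhibition of NCI-H292 cells, read out with a cell viability assay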
Description: SANGER: Inhibition of human NCI-H292 cell growth in a cell viability assay.

CAL-54 = type: functional, cell-based, Homo sapiens; settings: Homo sapiens, CAL-54;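 note: growth inhibition of CAL-54 cells, read out by a viability measurement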
Description: SANGER: Inhibition of human CAL-54 cell growth in a cell viability assay.

DoTc2-4510 = type: functional, cell-based, Homo sapiens; settings: Homo sapiens, DoTc2-4510
HCC70 = type: functional, cell-based, Homo sapiens; settings: Homo sapiens, HCC70;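 note: cell viability assay measuring how strongly the compound suppresses proliferation of HCC70 cells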
Description: SANGER: Inhibition of human HCC70 cell growth in a cell viability assay.

BCPAP = type: functional, cell-based, Homo sapiens; settings: Homo sapiens, BCPAP;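 note: growth inhibition of BCPAP cells, read out in a cell viability assay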
Description: SANGER: Inhibition of human BCPAP cell growth in a cell viability assay.

NCI-H596 = type: functional, cell-based, Homo sapiens; settings: Homo sapiens, NCI-H596;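 note: growth inhibition of NCI-H596 cells, read out with a cell viability assay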
Description: SANGER: Inhibition of human NCI-H596 cell growth in a cell viability assay.

KNS-62 = type: functional, cell-based, Homo sapiens; settings: Homo sapiens, KNS-62;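 note: inhibition of cell growth, read out with a cell viability assay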
Description: SANGER: Inhibition of human KNS-62 cell growth in a cell viability assay.

SK-MEL3 = type: functional, cell-based, Homo sapiens, SK-MEL-3; settings: Homo sapiens, SK-MEL3;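 note: growth inhibition of human SK-MEL-3 cells, read out with a cell viability assay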
Description: SANGER: Inhibition of human SK-MEL-3 cell growth in a cell viability assay.

KOSC-2 = type: functional, cell-based, Homo sapiens; settings: Homo sapiens, KOSC-2;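 note: growth inhibition of KOSC-2 cells, read out by a cell viability assay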
Description: SANGER: Inhibition of human KOSC-2 cell growth in a cell viability assay.

HuP-T3 = type: functional, cell-based, Homo sapiens; settings: Homo sapiens, HuP-T3;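 note: HuP-T3 cell growth inhibition, read out with a cell viability assay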
Description: SANGER: Inhibition of human HuP-T3 cell growth in a cell viability assay.

8505C = type: functional, cell-based, Homo sapiens; settings: Homo sapiens, 8505C
Description: SANGER: Inhibition of human 8505C cell growth in a cell viability assay.

RERF-LC-MS = type: functional, cell-based, Homo sapiens; settings: Homo sapiens, RERF-LC-MS;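 note: growth inhibition of human RERF-LC-MS cells, read out by a cell viability assay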
Description: SANGER: Inhibition of human RERF-LC-MS cell growth in a cell viability assay.

SK-MEL-28 = type: functional, cell-based, Homo sapiens; settings: Homo sapiens, SK-MEL-28;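 note: growth inhibition of human SK-MEL-28 cells, read out with a cell viability assay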
Description: SANGER: Inhibition of human SK-MEL-28 cell growth in a cell viability assay.

SW1088 = type: functional, cell-based, Homo sapiens; settings: Homo sapiens, SW1088;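 note: growth inhibition of human SW1088 cells, read out by a cell viability assay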
Description: SANGER: Inhibition of human SW1088 cell growth in a cell viability assay.

A-427 = type: functional, cell-based, Homo sapiens; settings: Homo sapiens, A-427;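 note: growth inhibition of human A-427 cells, read out by a cell viability assay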
Description: SANGER: Inhibition of human A427 cell growth in a cell viability assay.

HTC-C3 = type: functional, cell-based, Homo sapiens; settings: Homo sapiens, HTC-C3;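 note: inhibition of cell growth, read out with a cell viability assay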
Description: SANGER: Inhibition of human HTC-C3 cell growth in a cell viability assay.

SW-620 = type: functional, cell-based, Homo sapiens; settings: Homo sapiens, SW-620;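 note: growth inhibition of human SW-620 cells, measured by a cell viability assay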
Description: SANGER: Inhibition of human SW620 cell growth in a cell viability assay.

SK-N-AS = type: functional, cell-based, Homo sapiens; settings: Homo sapiens, SK-N-AS;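 note: growth inhibition of human SK-N-AS cells, measured with a cell viability assay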
Description: SANGER: Inhibition of human SK-N-AS cell growth in a cell viability assay.

Daoy = type: functional, cell-based, Homo sapiens; settings: Homo sapiens, Daoy;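 note: daoy cell growth inhibition, read out as cell viability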
Description: SANGER: Inhibition of human Daoy cell growth in a cell viability assay.

CAL-33 = type: functional, cell-based, Homo sapiens; settings: Homo sapiens, CAL-33;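 note: growth inhibition of CAL-33 cells, read out with a cell viability assay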
Description: SANGER: Inhibition of human CAL-33 cell growth in a cell viability assay.

NCI-H810 = type: functional, cell-based, Homo sapiens; settings: Homo sapiens, NCI-H810;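 note: IC50 reflects inhibition of cancer cell line growth, read out with a cell viability assay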
Description: SANGER: Inhibition of human NCI-H810 cell growth in a cell viability assay.

CAKI-1 = type: functional, cell-based, Homo sapiens; settings: Homo sapiens, CAKI-1;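 note: growth inhibition of CAKI-1 cells, measured by a cell viability assay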
Description: SANGER: Inhibition of human CAKI-1 cell growth in a cell viability assay.

MKN-45 = type: functional, cell-based, Homo sapiens; settings: Homo sapiens, MKN-45;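 note: growth inhibition of human MKN-45 cells, measured with a cell viability assay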
Description: SANGER: Inhibition of human MKN45 cell growth in a cell viability assay.

EVSA-T = type: functional, cell-based, Homo sapiens; settings: Homo sapiens, EVSA-T;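 note: growth inhibition of EVSA-T cells, read out with a cell viability assay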
Description: SANGER: Inhibition of human EVSA-T cell growth in a cell viability assay.

| Structure (SMILES) | pIC50 (MEL-HO) | pIC50 (CHP-212) | pIC50 (OAW-28) | pIC50 (KYSE-520 cell line) | pIC50 (SW626) | pIC50 (LCLC-97TM1) | pIC50 (ESS-1) | pIC50 (A-375) | pIC50 (NCI-H522) | pIC50 (A673) | pIC50 (HT55) | pIC50 (KYSE-450) | pIC50 (H-EMC-SS) | pIC50 (NCI-H292) | pIC50 (CAL-54) | pIC50 (DoTc2-4510) | pIC50 (HCC70) | pIC50 (BCPAP) | pIC50 (NCI-H596) | pIC50 (KNS-62) | other results |
| --- | --- | --- | --- | --- | --- | --- | --- | --- | --- | --- | --- | --- | --- | --- | --- | --- | --- | --- | --- | --- | --- |
| CC(C)CCN1c2nc(Nc3cc(F)c(O)c(F)c3)ncc2N(C)C(=O)C1C (stereo not given) | < 5.30 | < 5.30 | < 5.30 | < 5.30 | 5.31 | 5.58 | < 5.30 | 5.39 | < 5.30 | < 5.30 | < 5.30 | < 5.30 | < 5.30 | 5.84 | < 5.30 | < 5.30 | < 5.30 | < 5.30 | < 5.30 | < 5.30 | pIC50 (SK-MEL3): < 5.30; pIC50 (KOSC-2): 5.95; pIC50 (HuP-T3): < 5.30; pIC50 (8505C): 5.35; pIC50 (RERF-LC-MS): < 5.30; pIC50 (SK-MEL-28): < 5.30; pIC50 (SW1088): < 5.30; pIC50 (A-427): 5.51; pIC50 (HTC-C3): < 5.30; pIC50 (SW-620): < 5.30; pIC50 (SK-N-AS): 5.64; pIC50 (Daoy): 6.01; pIC50 (CAL-33): 5.45; pIC50 (NCI-H810): 5.49; pIC50 (CAKI-1): < 5.30; pIC50 (MKN-45): < 5.30 |
| COc1cc2c(Nc3ccc(NC(=O)c4ccccc4)cc3)ncnc2cc1OCCCN1CCOCC1 | < 5.40 | 5.83 | < 5.40 | < 5.40 | < 5.40 | 5.66 | < 5.40 | 5.41 | < 5.40 | < 5.40 | < 5.40 | < 5.40 | < 5.40 | 5.77 | < 5.40 | < 5.40 | < 5.40 | < 5.40 | < 5.40 | < 5.40 | pIC50 (SK-MEL3): < 5.40; pIC50 (KOSC-2): < 5.40; pIC50 (HuP-T3): < 5.40; pIC50 (8505C): < 5.40; pIC50 (RERF-LC-MS): < 5.40; pIC50 (SK-MEL-28): < 5.40; pIC50 (SW1088): < 5.40; pIC50 (A-427): < 5.40; pIC50 (HTC-C3): < 5.40; pIC50 (SW-620): < 5.40; pIC50 (SK-N-AS): < 5.40; pIC50 (Daoy): < 5.40; pIC50 (CAL-33): 5.76; pIC50 (NCI-H810): < 5.40; pIC50 (CAKI-1): < 5.40; pIC50 (MKN-45): < 5.40 |
| CC(C)c1ccccc1Cc1cc(C(=O)Nc2ccc(S(=O)(=O)c3ccccc3C(C)(C)C)cc2)c(O)c(O)c1O | 7.05 | 5.34 | 6.53 | 5.38 | 6.37 | 6.04 | 6.85 | 7.05 | 5.68 | 7.27 | 6.19 | 6.76 | 6.42 | 6.44 | 6.79 | 5.83 | 6.07 | 6.62 | 5.48 | 6.25 | pIC50 (EVSA-T): 6.85; pIC50 (SK-MEL3): 6.16; pIC50 (KOSC-2): 6.30; pIC50 (HuP-T3): 5.89; pIC50 (8505C): 6.66; pIC50 (RERF-LC-MS): 7.45; pIC50 (SK-MEL-28): 5.86; pIC50 (SW1088): 6.34; pIC50 (A-427): 7.35; pIC50 (HTC-C3): 5.80; pIC50 (SW-620): 6.02; pIC50 (SK-N-AS): 6.74; pIC50 (Daoy): 6.85; pIC50 (CAL-33): 6.09; pIC50 (NCI-H810): 6.18; pIC50 (CAKI-1): 6.66; pIC50 (MKN-45): 6.47 |
| CC1(C)CNc2cc(NC(=O)c3cccnc3NCc3ccncc3)ccc21 [MOTESANIB] | < 5.70 | < 5.70 | < 5.70 | < 5.70 | < 5.70 | < 5.70 | < 5.70 | < 5.70 | < 5.70 | < 5.70 | < 5.70 | < 5.70 | < 5.70 | < 5.70 | < 5.70 | < 5.70 | < 5.70 | < 5.70 | < 5.70 | < 5.70 | pIC50 (SK-MEL3): < 5.70; pIC50 (KOSC-2): < 5.70; pIC50 (HuP-T3): < 5.70; pIC50 (8505C): < 5.70; pIC50 (RERF-LC-MS): < 5.70; pIC50 (SK-MEL-28): < 5.70; pIC50 (SW1088): < 5.70; pIC50 (A-427): < 5.70; pIC50 (HTC-C3): < 5.70; pIC50 (SW-620): < 5.70; pIC50 (SK-N-AS): < 5.70; pIC50 (Daoy): < 5.70; pIC50 (CAL-33): < 5.70; pIC50 (NCI-H810): < 5.70; pIC50 (CAKI-1): < 5.70; pIC50 (MKN-45): < 5.70 |
